Among the data in a melting point compilation (Tetko et al.; mined from patent text by program, amines drawn as free bases though some values may be those of a salt) are melting point values, retold here.

Consider `NS(=O)(=O)N1CC2(CCN(C(=O)Nc3nnc(-c4ccccc4)s3)CC2)c2ccccc21`, for which the melting point (as a rule, the temperature, or range, at which the solid turns liquid) was over 300 °C. Take `CC(C)CC1(C(CC(C)N2C(=O)c3ccccc3C2=O)C(=O)NO)CCN(CCc2ccccc2)C1=O` (stereo not drawn): the melting point was in the range of 113 to 114 °C. As for `COc1nc(C)cc(C)c1C(=O)O`, the figure is 210 to 215 °C; as for `COCCC(O)c1cc2c(=O)n(NS(C)(=O)=O)c(=O)[nH]c2cc1C(F)(F)F` (stereo not drawn), 180 to 184 °C; as for `CC(C)(C)OC(=O)NCc1cccc(C(=O)O)c1`, 127 to 128 °C. `CC(Oc1cccc(Cl)c1)c1nnc(N)s1` (stereo not drawn) gave a melting point of 136 to 138 °C. Consider `CCc1ccc2c(=O)c(C(N)=O)cn(C)c2c1`, for which the melting point was in the range of 255 to 256 °C. The same measure for `Cc1c(C)c2c(c(C)c1NC(=O)CC(C)(C)C)C(C)(c1ccc(C(C)C)cc1)CO2` (stereo not drawn): 194 to 195 °C; for `O=C(/C=C/c1cccc(-c2cccc([N+](=O)[O-])c2)c1)Nc1ccc(CN2CCCCC2)cc1`: 178 to 179 °C; for `CS(=O)(=O)OCCc1ccc(OCc2coc(/C=C/c3ccccc3)n2)cc1`: 121 to 122 °C.

`COC(=O)c1ccc(S(C)(=O)=O)c(-c2nccs2)c1Cl` displayed a melting point of 135 to 138 °C. Regarding `Cc1cc(C2=NOC(O)(C(F)(F)F)C2Cl)c(F)cc1Cl` (stereo not drawn), the melting point was 90 to 91 °C. The same measure for `COCCc1nc2c(N)nc3ccccc3c2n1CCCCNC(=O)c1ccc2ccccc2n1`: 78.1 to 79.9 °C. As for `O=C1Cc2c(OCc3ccccc3)cc(OCc3ccccc3)cc2O[C@@H]1c1ccc(OCc2ccccc2)c(OCc2ccccc2)c1`, the figure is 144 °C; as for `O=C(N=C1SCCN1Cc1ccc(Cl)nc1)C(F)(F)F`, 96 °C; as for `COc1cc(OC)nc(NC(=O)NS(=O)(=O)c2cscc2C)n1`, 175 to 178 °C. Molecule `CCOC(=O)C(=CC(=CN(C)C)C(=O)C(=O)OC)Sc1ccccc1` showed a melting point of 118 °C. As for `N[C@@H](Cc1ccccc1)C(=O)N(CC1CC(Br)=NO1)C(=O)OCc1ccccc1` (stereo partly drawn), the figure is 122 to 125 °C. Molecule `CC(C)CNc1c([N+](=O)[O-])c2nnnn2c2cnccc12` returned a melting point of 173 to 174 °C.

Turning to `Cc1oc(-c2ccccc2)nc1COc1ccc(CCCC2OC(=O)NC2=O)cc1OC(C)C` (stereo not drawn), the melting point lay within 120 to 121 °C.

`CN1CCN(Cc2ccc(Cl)cc2Cl)C(C2(C)NCCN2)C1` (stereo not drawn) came in with a melting point of 61 to 63 °C. As for `COc1cc(C=O)c(OC)cc1C`, the figure is 83 °C; as for `CS(=O)C1C(O)C(CO)OC1n1ccc(=O)[nH]c1=O` (stereo not drawn), 219 to 221 °C; as for `Cc1ccc(N(C)S(=O)(=O)c2cccnc2Cl)c2[nH]c(C3=NCC(CN4CCOCC4)S3)cc12` (stereo not drawn), 151 to 153 °C. On to `N#Cc1ccc(N(CCOc2ccc(OCc3ccccc3)cc2)n2cnnc2)cc1`, for which the melting point was in the range of 160 to 162 °C. The same measure for `CC1(C)CC(=O)CCc2ccc(Br)cc21`: 67 to 68 °C; for `Cc1cc2ncnn2nc1OCCOCCN1CCC(OC(c2ccccc2)c2ccccc2)CC1`: 80 to 82 °C; for `C[C@@H](N1CCN(c2nnn(Cc3ccc(C(F)(F)F)cc3)n2)CC1)[C@](O)(Cn1cncn1)c1ccc(F)cc1F`: 71 to 72 °C.

`CCC(=O)C(CCCCc1ccc(O)cc1)C(=O)CC` displayed a melting point of 67 to 69 °C.

On to `CCCc1nc(SC)c(C=O)n1Cc1ccc(-c2ccccc2S(=O)(=O)NC(=O)NCc2ccccc2)cc1`, for which the melting point was determined as 180 °C. The same measure for `CCCN(CCC)Cc1nc(-c2ncn3c2[C@@H]2CCCN2C(=O)c2cc(F)ccc2-3)no1`: 222 to 225 °C. As for `c1ccc(COc2cccn3ccnc23)cc1`, the figure is 110 °C; as for `CCOCc1nc2c(N)nc3cc(CCCO)ccc3c2n1CC(C)(C)O`, 177 to 178 °C; as for `c1ccc2c(c1)Cn1cnnc1CN2`, 232 to 237 °C. The same measure for `O=C=Nc1ccc(OC(=O)COCCOCC(=O)Oc2ccc(N=C=O)cc2)cc1`: 139 to 142 °C; for `CCNC(=O)c1ccc(N2CCNCC2)cc1`: 131 to 134 °C. Molecule `CC(c1oc2ccccc2c(=O)c1-c1cccc(F)c1)n1nc(-c2ccc3c(c2)CCO3)c2c(N)ncnc21` (stereo not drawn) had a melting point of 238 to 241 °C. The same measure for `O=C1C(=O)c2ccc(Br)cc2C2=C1SCC1(CCN(CC(O)COc3ccc4cc(Br)ccc4c3)CC1)O2` (stereo not drawn): 104 to 105 °C; for `CCOC(=O)C(=O)Nc1ccccc1C(=O)Nc1nnn[nH]1`: 231 to 232 °C; for `CCS(=O)(=O)CCNc1c(S(C)=O)c(C#N)nn1-c1c(Cl)cc(C(F)(F)F)cc1Cl` (stereo not drawn): 131 to 132 °C. As for `CC(=O)ON=C1CCCN(C(=O)c2ccc(NC(=O)c3ccccc3Cl)cc2)c2ccccc21`, the figure is 142 to 144 °C; as for `CN1CCN(CCCCNc2ncc3cc(-c4c(Cl)cccc4Cl)c(=O)n(C)c3n2)CC1`, 130 to 132 °C; as for `CSC1COc2cc(NS(C)(=O)=O)c(Oc3ccccc3)cc2C1=O` (stereo not drawn), 126 to 128 °C. As for `NC(=O)CNCC(=O)NCCCO`, the figure is 118 to 120 °C; as for `Cc1cc(-n2ccnc2)ccc1N`, 131 to 134 °C. `CN(CCCCc1ccccc1)CCCc1ccccc1` gave a melting point of 81 to 83 °C. As for `Cc1[nH]c2ccc(OCCCCBr)cc2c1C`, the figure is 119 to 120 °C; as for `O=C1c2ccccc2C(=O)N1CCN1CCC(=C(c2ccccc2)c2ccccc2)CC1`, 106 to 108 °C; as for `COc1ccc2c(c1)CCC1C3CC4OCCOC4C3(C)CCC21C` (stereo not drawn), 115 °C. The same measure for `CC[C@@]1(C)OC(=O)C(c2ccc(F)cc2)=C1c1ccc(S(C)(=O)=O)cc1`: 120 to 121 °C; for `CCCCCCC(=O)CC(C)=O`: 105 to 106 °C; for `COCCOc1ccc(CCNC(=O)c2cnc3ccccc3c2)cc1S(N)(=O)=O`: 170 °C.

In turn, `CCN1CNS(=O)(=O)c2cc(Br)ccc21` registered a melting point of 122 to 124 °C. The same measure for `O=C1Nc2c(Cl)cccc2C12COc1cc3c(cc12)CCO3` (stereo not drawn): over 250 °C.

Molecule `CCCCn1c(=S)c2c(ncn2CC(C)=O)n(CC)c1=O` yielded a melting point of 173 to 174 °C. For the molecule `CCOC(=O)CC(=O)Nc1ccc(Cl)c(Cl)c1`, the melting point lay within 74 to 75 °C. As for `Cc1ccc(-n2nc(Sc3ccc(Cl)cc3)c(C)c(C#N)c2=O)cc1`, the figure is 190 to 192 °C; as for `CCCCn1c(C)c(C)cc(NC(=O)OCc2ccccc2)c1=O`, 65 to 66 °C; as for `C=CC(=O)OCCS(=O)(=O)c1ccc(O)cc1`, 91 to 92 °C. The same measure for `CC(CNC(=O)c1ccc(Oc2ccc(F)cc2)o1)N(O)C(N)=O` (stereo not drawn): 180 to 181 °C; for `CC(C)CCCC(=O)OC1c2ccccc2C(=O)N1c1ccc2ccc(Br)nc2n1` (stereo not drawn): 136 °C. For the molecule `CCc1[nH]n(C2CCCC2)c2nc(-c3ccc(OCCCN(C)C)cc3)nc(=O)c1-2`, the melting point was 175 to 178 °C.

Molecule `COc1cc(Br)c(OC(=O)c2ccc(OC)c(C(F)(F)F)c2)c(NC(=O)c2ccc(OC)c(C(F)(F)F)c2)c1` yielded a melting point of 205 to 208 °C. As for `c1ccc(Nc2ccnc3cn[nH]c23)cc1`, the figure is 222 to 224 °C; as for `CCOC(=O)CCc1ccc2cc(O)ccc2c1`, 90 to 91 °C.

Molecule `CCCCc1nn(CC(=O)c2ccccc2)c(=O)n1Cc1ccc(-c2ccccc2-c2nnn[nH]2)cc1` came in with a melting point of 89 to 92 °C.

Molecule `CNC(=O)c1ccccc1Nc1nc(Nc2c(OC)ccc3c2C(=O)N(C)CCC3)ncc1Cl` registered a melting point of 185 to 187 °C.

In turn, `BrC=C1c2ccccc2CCc2ccccc21` returned a melting point of 73.6 °C.

For the molecule `O=C(C1=C(Nc2ccccc2)CCC1)c1ccccc1Br`, the melting point was in the range of 106 to 108 °C.

For `CC(C)(C)OC(=O)Nc1cc(N2CCSCC2)c(I)cc1N`, the melting point was 125 to 127 °C. As for `Cc1ccc(C(=O)Nc2ccccc2C(N)=O)cc1`, the figure is 206 to 208 °C; as for `CN1C(=O)C(NC(=O)Nc2ccc([N+](=O)[O-])cc2)N=C(c2ccccc2)c2ccccc21` (stereo not drawn), 292 to 293 °C. `CC(C)(C)OC(=O)C[C@@H]1C[C@@H](COc2ccc(-c3ccc(C(=N)NC(=O)OCc4ccccc4)cc3)cc2)NC1=O` came in with a melting point of 136 to 140 °C. The same measure for `CNC1(c2ccccc2Cl)C(=O)Nc2ccc(C)cc21` (stereo not drawn): 186 to 187 °C; for `COC(=O)c1sccc1-c1cc2c(cc1C)C(C)(C)CCC2(C)C`: 89 to 90 °C; for `CC(C)(C)OC(=O)/C=C1\CCc2cccc3c2N1CC3`: 105 to 107 °C. As for `CN(C)CCOC(c1ccccc1)c1ccc(C(=O)NCCCCn2cnc3c(N)nc4ccccc4c32)cc1` (stereo not drawn), the figure is 110 to 114 °C. Take `C=CCS(=O)(=O)c1cccnc1S(N)(=O)=O`: the melting point was 178 °C. On to `NS(=O)(=O)c1cc(C(=O)O)cc(CCn2cccc2)c1Cl`, for which the melting point was in the range of 224 to 228 °C. The same measure for `CCCc1c(OCCCCCCc2ccc(C(C)(C)C)c(O)c2O)ccc(C(=O)O)c1O`: 85 to 87 °C. `O=C1COc2c(cc(Cl)cc2C(=O)NC2CCN(CCc3ccccc3)CC2)N1` yielded a melting point of 233 to 235 °C. As for `CC1(C)CCCC(C)(C)N1Cc1ccc2cc(NC(=O)c3ccc(-c4ccc(F)cc4)cc3)ccc2c1`, the figure is 238 to 241 °C; as for `OCC1OC(n2c(Cl)nc3cc(Cl)c(Cl)cc32)C(O)C1O` (stereo not drawn), 175 to 176 °C. The same measure for `COc1cc(C=CC(=O)Nc2c(-c3ccccc3Cl)c3cc(C(C)C)ccc3n(C)c2=O)cc(OC)c1OC(C)=O`: 187 to 189 °C; for `CN(C)C(=O)C1=C(C(=O)Nc2cc(OC3CCCC3)c(Cl)cc2F)CCCC1`: 136 to 138 °C; for `CCOC(=O)c1ccc(NCCCCCc2ccccc2)cc1`: 63 to 64 °C. As for `CN(C)S(=O)(=O)c1cc(N=C=O)ccc1Cl`, the figure is 82 to 85 °C; as for `CCOC(=O)c1cc(-n2c(OC)nc(C(F)(F)F)c(F)c2=O)c(F)cc1Cl`, 69 to 72 °C.
